B1: Solute carrier family 22 member 3 (Homo sapiens) (protein)
chain: MPSFDEALQRVGEFGRFQRRVFLLLCLTGVTFAFLFVGVVFLGTQPDHYWCRGPSAAALAERCGWSPEEEWNRTAPASRGPEPPERRGRCQRYLLEAANDSASATSALSCADPLAAFPNRSAPLVPCRGGWRYAQAHSTIVSEFDLVCVNAWMLDLTQAILNLGFLTGAFTLGYAADRYGRIVIYLLSCLGVGVTGVVVAFAPNFPVFVIFRFLQGVFGKGTWMTCYVIVTEIVGSKQRRIVGIVIQMFFTLGIIILPGIAYFIPNWQGIQLAITLPSFLFLLYYWVVPESPRWLITRKKGDKALQILRRIAKCNGKYLSSNYSEITVTDEEVSNPSFLDLVRTPQMRKCTLILMFAWFTSAVVYQGLVMRLGIIGGNLYIDFFISGVVELPGALLILLTIERLGRRLPFAASNIVAGVACLVTAFLPEGIAWLRTTVATLGRLGITMAFEIVYLVNSELYPTTLRNFGVSLCSGLCDFGGIIAPFLLFRLAAVWLELPLIIFGILASICGGLVMLLPETKGIALPETVDDVEKLGSPHSCKCGRNKKTPVSRSHL
B2: Solute carrier family 22 member 1 (Homo sapiens) (protein)
chain: MPTVDDILEQVGESGWFQKQAFLILCLLSAAFAPICVGIVFLGFTPDHHCQSPGVAELSQRCGWSPAEELNYTVPGLGPAGEAFLGQCRRYEVDWNQSALSCVDPLASLATNRSHLPLGPCQDGWVYDTPGSSIVTEFNLVCADSWKLDLFQSCLNAGFLFGSLGVGYFADRFGRKLCLLGTVLVNAVSGVLMAFSPNYMSMLLFRLLQGLVSKGNWMAGYTLITEFVGSGSRRTVAIMYQMAFTVGLVALTGLAYALPHWRWLQLAVSLPTFLFLLYYWCVPESPRWLLSQKRNTEAIKIMDHIAQKNGKLPPADLKMLSLEEDVTEKLSPSFADLFRTPRLRKRTFILMYLWFTDSVLYQGLILHMGATSGNLYLDFLYSALVEIPGAFIALITIDRVGRIYPMAMSNLLAGAACLVMIFISPDLHWLNIIIMCVGRMGITIAIQMICLVNAELYPTFVRNLGVMVCSSLCDIGGIITPFIVFRLREVWQALPLILFAVLGLLAAGVTLLLPETKGVALPETMKDAENLGRKAKPKENTIYLKVQTSEPSGT

Key:
[1] = target: T1, Solute carrier family 22 member 1 (Homo sapiens, UniProt O15245); experiment: Inhibition of human OCT1 expressed in HEK293 cells assessed as reduction in ASP+ substrate uptake by microplate reader based analysis; format: cell-based
T1 sequence (O15245 whole entry): B2 chain

in vitro = settings: PAMPA
Description: Passive membrane permeability by LC-MS/MS analysis based PAMPA

OCT1 (SLC22A1) [2] = target: T2, OCT1 (SLC22A1) (Homo sapiens, UniProt O15245); experiment: Substrate activity at human OCT1 expressed in HEK293 cells assessed as increase in compound uptake at 0.1 uM incubated for 2 mins by LC-MS/MS analysis relative to control empty vector transfected cells; format: cell-based; settings: HEK293 cells that express human OCT1, read-out: FC
T2 sequence (O15245 whole entry): B2 chain

OCT1 (SLC22A1) [3] = target: T2, OCT1 (SLC22A1); experiment: Substrate activity at human OCT1 expressed in HEK293 cells assessed as increase in compound uptake at 0.5 uM incubated for 2 mins by LC-MS/MS analysis relative to control empty vector transfected cells; format: cell-based; settings: HEK293 cells that express human OCT1, read-out: FC
OCT1 (SLC22A1) [4] = target: T2, OCT1 (SLC22A1); experiment: Substrate activity at human OCT1 expressed in HEK293 cells assessed as increase in compound uptake at 0.05 uM incubated for 2 mins by LC-MS/MS analysis relative to control empty vector transfected cells; format: cell-based; settings: HEK293 cells that express human OCT1, read-out: FC
[5] = Ratio of unbound Cmax in human at 34 mg, iv to inhibition of human OCT1 expressed in HEK293 cells assessed as reduction in ASP+ substrate uptake by microplate reader based analysis; format: ADME, organism-based; settings: in vivo
[6] = Unbound Cmax in human at 34 mg, iv; format: ADME; settings: in vivo
[7] = Cmax in human at 34 mg, iv; format: ADME; set-up: dose 34 mg, route intravenous; settings: in vivo
[8] = Unbound maximal portal vein concentration of in human at 34 mg, iv; format: ADME, tissue-based; settings: in vivo
[9] = Unbound Cmax in human at 86 mg, po dosed as prolonged release formulation; format: ADME, organism-based; settings: in vivo
[10] = Cmax in human at 86 mg, po dosed as prolonged release formulation; format: ADME, organism-based; set-up: dose 86 mg, route oral; settings: in vivo
[11] = Unbound Cmax in human at 80 mg, po dosed as immediate release formulation; format: ADME, organism-based; settings: in vivo
[12] = Unbound maximal portal vein concentration of in human at 80 mg, po dosed as immediate release formulation; format: ADME, organism-based; settings: in vivo
[13] = Ratio of unbound maximal portal vein concentration in human at 80 mg, po dosed as immediate release formulation to inhibition of human OCT1 expressed in HEK293 cells assessed as reduction in ASP+ substrate uptake by microplate reader based analysis; format: ADME, organism-based; settings: in vivo
[14] = Ratio of unbound Cmax in human at 80 mg, po dosed as immediate release formulation to inhibition of human OCT1 expressed in HEK293 cells assessed as reduction in ASP+ substrate uptake by microplate reader based analysis; format: ADME, organism-based; settings: in vivo
[15] = Ratio of unbound Cmax in human at 86 mg, po dosed as prolonged release formulation to inhibition of human OCT1 expressed in HEK293 cells assessed as reduction in ASP+ substrate uptake by microplate reader based analysis; format: ADME, organism-based; settings: in vivo
[16] = Unbound maximal portal vein concentration of in human at 86 mg, po dosed as prolonged release formulation; format: ADME, organism-based; settings: in vivo
[17] = Ratio of unbound maximal portal vein concentration in human at 86 mg, po dosed as prolonged release formulation to inhibition of human OCT1 expressed in HEK293 cells assessed as reduction in ASP+ substrate uptake by microplate reader based analysis; format: ADME, organism-based; settings: in vivo
[18] = Cmax in human at 80 mg, po dosed as immediate release formulation; format: ADME, organism-based; set-up: dose 80 mg, route oral; settings: in vivo
[19] = Ratio of unbound maximal portal vein concentration in human at 34 mg, iv to inhibition of human OCT1 expressed in HEK293 cells assessed as reduction in ASP+ substrate uptake by microplate reader based analysis; format: ADME, organism-based; settings: in vivo
[20] = substrate: C[N+]1(CC2CC2)CC[C@]23c4c5ccc(O)c4O[C@H]2C(=O)CC[C@@]3(O)[C@H]1C5; experiment: Substrate activity at human OCT3 expressed in HEK293 cells assessed as increase in compound uptake by measuring Km incubated for 2 mins by LC-MS/MS analysis based Michaelis-Menten plot analysis relative to control empty vector transfected cells; format: cell-based
[21] = substrate: CNS(=O)(=O)Cc1ccc2[nH]cc(CCN(C)C)c2c1; experiment: Substrate activity at human OCT1 expressed in HEK293 cells assessed as increase in compound uptake by measuring Km incubated for 2 mins by LC-MS/MS analysis based Michaelis-Menten plot analysis relative to control empty vector transfected cells; format: cell-based

Molecule | IC50 [1] [µM] | Papp (in vitro) [×10⁻⁶ cm/s] | uptake ratio at 2 min, 0.1 µM (OCT1 (SLC22A1) [2]) | uptake ratio at 2 min, 0.5 µM (OCT1 (SLC22A1) [3]) | uptake ratio at 2 min, 0.05 µM (OCT1 (SLC22A1) [4]) | other results
COc1cccc([C@@]2(O)CCCC[C@@H]2CN(C)C)c1 [(R,R)-TRAMADOL] | 88.8 | 26.9 |  |  |  | 
CCC1(c2cccc(O)c2)CCCCN(C)C1 (configuration not stated) [MEPTAZINOL] | 19 | 14.3 | 2.2 | 3.2 | 0.8 | 
Oc1ccc2c(c1)[C@@]13CCCC[C@H]1[C@@H](C2)NCC3 [NORLEVORPHANOL] | 24.9 to 25 | 0.7 | 14.9 | 17.4 | 14 | 
CN1CC[C@]23c4c5ccc(O)c4O[C@H]2C(=O)CC[C@@]3(O)[C@H]1C5 [OXYMORPHONE] | 250 | 3.2 | 1.3 | 0.9 | 2.4 | 
CNC[C@H]1CCCC[C@]1(O)c1cccc(OC)c1 | 55.7 | 13.4 |  |  |  | 
COc1ccc2c3c1O[C@H]1C(=O)CC[C@@]4(O)[C@@H](C2)NCC[C@]314 | 200 | 0.9 | 3.9 | 3.6 | 4 | 
CC[C@@H](c1cccc(O)c1)[C@@H](C)CN(C)C [TAPENTADOL] | 21.9 | 13.6 | 1.6 | 1.5 | 0.9 | Ratio [5]: 0.04; fCmax [6]: 0.88 µM; Cmax [7]: 1100 nM; fCmax [8]: 8.13 µM; fCmax [9]: 0.08 µM; Cmax [10]: 100 nM; fCmax [11]: 0.23 µM; fCmax [12]: 18.58 µM; Ratio [13]: 0.849; Ratio [14]: 0.011; Ratio [15]: 0.004; fCmax [16]: 18.43 µM; Ratio [17]: 0.842; Cmax [18]: 290 nM; Ratio [19]: 0.371
COc1ccc2c3c1O[C@H]1C(=O)CC[C@H]4[C@@H](C2)N(C)CC[C@]314 [HYDROCODONE] | 537 | 9.1 | 1.6 | 1.2 | 0.9 | 
COc1ccc2c3c1O[C@H]1[C@@H](O)C=C[C@H]4[C@@H](C2)N(C)CC[C@@]341 [CODEINE] | 236 | 8 | 1 | 0.8 | 0.7 | 
CCOC(=O)C1(c2ccccc2)CCN(C)CC1 [MEPERIDINE] | 22.3 | 40.2 | 1.2 | 1.2 | 1.1 | 
O=C1CC[C@@]2(O)[C@H]3Cc4ccc(O)c5c4[C@@]2(CCN3CC2CC2)[C@H]1O5 [NALTREXONE] | 158 | 15.1 | 0.8 | 1 | 0.8 | 
COc1ccc2c(c1)[C@@]13CCCC[C@H]1[C@@H](C2)NCC3 | 10 to 10.3 | 17.2 | 2.2 | 2 | 2.5 | 
CN1CC[C@@]23CCCC[C@@H]2[C@@H]1Cc1ccc(O)cc13 [DEXTRORPHAN] | 6 to 6.4 | 5.4 | 1.9 | 1.5 | 2.1 | 
CN1CC[C@]23CCCC[C@H]2[C@H]1Cc1ccc(O)cc13 [LEVORPHANOL] | 8 to 8.48 | 9.2 | 1.7 | 1.3 | 1.5 | 
B1 |  |  |  |  |  | Km [20]: 22.5 µM; Vmax [20]: 1.75e-05 µmol/min/mg
B2 |  |  |  |  |  | Km [21]: 55 µM

— ChEMBL document CHEMBL4321821, “Opioids as Substrates and Inhibitors of the Genetically Highly Variable Organic Cation Transporter OCT1” (J Med Chem, 2019)
